Experimental data taken from PubChem BioAssay AID651630 (Sanford-Burnham Center for Chemical Genomics, 2012).
Activity calls are given as the source filed them.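 Rule for the calls: active = lipid-stain IC50 at or below a set limit, with nuclear-stain toxicity IC50 at least five times higher; inactive = the rest.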

Key:
[1] = tested on: TAG; test: TAG lipid buildup inhibition with viability readout – cell-based, panel, Nile Red and DAPI fluorescence, H9c2, dose response (AID 651630); conditions: H9c2 cells, Nile Red TAG fluorescence, oleic acid;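 note: cells exposed to compound overnight before fixation and staining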
[2] = tested on: DAPI; test: as above; conditions: H9c2 cells, DAPI nuclear fluorescence (cytotoxicity counter-readout), oleic acid

SMILES	IC50 ([1]; mean of runs)	IC50 ([1]; run 1) [µM]	IC50 ([1]; run 2) [µM]	IC50 cytotoxicity (DAPI nuclear signal decrease) ([2]; mean of runs)	IC50 cytotoxicity (DAPI nuclear signal decrease) ([2]; run 1) [µM]	IC50 cytotoxicity (DAPI nuclear signal decrease) ([2]; run 2) [µM]
O=C(N/N=C/c1ccc(Cl)cc1)c1sccc1OCc1ccc(F)cc1	> 25 µM (inactive)	> 25	> 25	> 25 µM (inactive)	> 25	> 25
CCCC1O[C@@H]2C[C@H]3[C@@H]4CCC5=CC(=O)C=C[C@]5(C)[C@H]4[C@@H](O)C[C@]3(C)[C@]2(C(=O)CO)O1 (stereo partly specified)	3.49 µM	3.52	3.46		> 25	> 25
CCOC(=O)c1c(NC(C)=O)sc2c(OCC(O)CN(CC)CC)c(Br)ccc12 (stereo unspecified)		> 25	22.1	> 25 µM (inactive)	> 25	> 25
CCOC(=O)c1cc(-c2ccccc2)sc1NC(=O)C(C)N1C(=O)NC(C)(c2ccc(Cl)cc2)C1=O (stereo unspecified)	5.58 µM	5.07	6.09	> 25 µM (inactive)	> 25	> 25
CN(C)CCCn1c(SCC(=O)Nc2nc(-c3cccc(Br)c3)cs2)nc2ccccc2c1=O	9.78 µM	10.1	9.46	> 25 µM (inactive)	> 25	> 25
CCCOc1ccc(F)cc1-c1cc(C(=O)NCc2cc(OC)cc(OC)c2)[nH]n1	10.1 µM	10.8	9.39	> 25 µM (inactive)	> 25	> 25
CC(=O)c1cccc(-c2ccnc3c2CC(C(=O)NCc2ccco2)O3)c1 (stereo unspecified)	> 25 µM (inactive)	> 25	> 25	> 25 µM (inactive)	> 25	> 25
c1ccc(OCCNc2nc(NCC3CC3)nc3cc(-c4ccccc4)sc23)cc1	12.8 µM	12.7	12.9	> 25 µM (inactive)	> 25	> 25
CCC1=Nc2cc(C(=O)NCCCOC)ccc2Sc2ccccc21	> 25 µM (inactive)	> 25	> 25	> 25 µM (inactive)	> 25	> 25
Cc1cccc(Nc2nc(NCc3ccco3)nc(N3CCOCC3)n2)c1	> 25 µM (inactive)	> 25	> 25	> 25 µM (inactive)	> 25	> 25
C=CCC[C@H](Cc1ccc(F)cc1)C(=O)OC[C@H](C)NC(=O)[C@@H](CC=C)CC(=O)N[C@H](CO)Cc1ccccc1	15.4 µM (inactive)	11.9	18.9	> 25 µM (inactive)	> 25	> 25
CC(=O)O[C@H]1C[C@@]2(C)[C@@H](C[C@@H](O)[C@H]3[C@@]4(C)CC[C@@H](O)[C@@H](C)[C@@H]4CC[C@@]32C)/C1=C(\CCC=C(C)C)C(=O)O	18.5 µM (inactive)	15	22	> 25 µM (inactive)	> 25	> 25
Cc1ccc(Oc2ccc(S(=O)(=O)N3CCOCC3)cc2C(N)=O)c(-n2nc3ccccc3n2)c1	> 25 µM (inactive)	> 25	> 25	> 25 µM (inactive)	> 25	> 25
O=c1c2c3nc4ccccc4nc3n(/N=C/c3ccccn3)c2ncn1-c1ccccc1	2.48 µM	3.37	1.59		> 25	> 25
CCOc1ccc2nc(-c3ccccc3)nc(SCC(=O)Nc3ncc(C)s3)c2c1	> 25 µM (inactive)	> 25	> 25	> 25 µM (inactive)	> 25	> 25
Nc1ccccc1C#Cc1ccccc1	10.9 µM	8.79	13.1	> 25 µM (inactive)	> 25	> 25
COc1ccc2sc(-c3ccc(S(C)(=O)=O)cc3)c(C#Cc3cncn3C)c2c1	> 25 µM (inactive)	> 25	> 25	> 25 µM (inactive)	> 25	> 25

SMILES	IC50 ([1]; mean of runs)	IC50 ([1]; run 1) [µM]	IC50 ([1]; run 2) [µM]	IC50 cytotoxicity (DAPI nuclear signal decrease) ([2]; mean of runs)	IC50 cytotoxicity (DAPI nuclear signal decrease) ([2]; run 1) [µM]	IC50 cytotoxicity (DAPI nuclear signal decrease) ([2]; run 2) [µM]
FC(F)Oc1ccc(-c2csc(NNC3=NCCCCC3)n2)cc1	2.55 µM	2.29	2.81		> 25	> 25
Cc1nn2c(N3CCCC3)cc(C(C)C)nc2c1-c1ccccc1	> 25 µM (inactive)	> 25	> 25	> 25 µM (inactive)	> 25	> 25
C=CC[C@@H](CC(=O)N(CCO)Cc1ccccc1)C(=O)N[C@H](COC(=O)[C@@H](CC=C)Cc1ccc(F)cc1)Cc1c[nH]c2ccccc12	8.92 µM	7.83	10	> 25 µM (inactive)	> 25	> 25
CCOc1ccccc1NC(=O)c1cccc(NC(=O)c2ccco2)c1		> 25	9.58	> 25 µM (inactive)	> 25	> 25
CCOC(=O)c1c(CSC(=N)N)n(-c2ccccc2)c2cc(Br)c(OC(C)=O)cc12	18 µM (inactive)	17.1	18.9	> 25 µM (inactive)	> 25	> 25
COc1ccc(-n2nc(C(=O)Nc3ccc4c(c3)OCO4)c3c4ccccc4n(C)c3c2=O)cc1		24.8	> 25	> 25 µM (inactive)	> 25	> 25
CC(=O)c1ccc(-c2cnc3c(NC=O)cc(-c4ccc(C(=O)NC5CC5)cc4)cn23)cc1	> 25 µM (inactive)	> 25	> 25	> 25 µM (inactive)	> 25	> 25
CC(C)c1ccc(Nc2nc(N3CCOCC3)nc(N3CCOCC3)n2)cc1	3.9 µM	4.38	3.41		> 25	> 25
CCCCCCSc1cc(-c2nc3ccc(Cl)cn3c2NC2CCCCC2)ccc1OC	22.6 µM (inactive)	20.4	24.7	> 25 µM (inactive)	> 25	> 25
Oc1cccc2cc(-c3ccncc3)cnc12	> 25 µM (inactive)	> 25	> 25	> 25 µM (inactive)	> 25	> 25
Cc1cc(C)c2nc(NC(=O)c3ccc([N+](=O)[O-])o3)sc2c1	> 25 µM (inactive)	> 25	> 25	> 25 µM (inactive)	> 25	> 25
COc1ccc(CNC(=O)C[C@H]2C[C@H](C(=O)N3CCCCC3)[C@@]3(CCc4ccccc4)c4[nH]c5ccc(Cl)cc5c4CCN3C2=O)cc1OC	10 µM	9.61	10.4	> 25 µM (inactive)	> 25	> 25
CCCCCc1cc(=O)oc2c(C(CCN3CCN(c4ccccc4)CC3)c3ccc(N(C)C)cc3)c(OC)cc(OC)c12 (stereo unspecified)	12.2 µM	11.2	13.2	> 25 µM (inactive)	> 25	> 25
O=C(c1ccoc1)N1CCN(c2cc(-c3ccccc3)nc3cc(-c4ccc(Br)cc4)nn23)CC1	12.1 µM	12.8	11.3	> 25 µM (inactive)	> 25	> 25
COc1cc(NC(=O)Nc2nc(C(N)CCc3ccccc3)cs2)cc(OC)c1OC (stereo unspecified)	6.55 µM	5.15	7.96	> 25 µM (inactive)	> 25	> 25
Cc1ccc(C2C(C=Nc3c(C)n(C)n(-c4ccccc4)c3=O)=C(c3ccccc3)Oc3ccccc32)cc1 (stereo unspecified)	7.41 µM	6.56	8.27	> 25 µM (inactive)	> 25	> 25
